Consider 13 compounds from patent publication US7361659B2, “Pyrrazolo-pyrimidine derivatives” (Hoffmann-La Roche Inc., priority 2005, dated 2008).

In one data set the target is T1, rat mGlu2 receptor (Rattus norvegicus, UniProt P31421).
T1 construct: expressed in transfected cells; membranes prepared
Kind of data set: [3H]-LY354740 binding on mGlu2 transfected CHO cell membranes. The note with it: 10 nM [3H]-LY354740, membranes of CHO cells transfected with rat mGlu2, room temperature, 1 hour. The source says: [^3H]-LY354740 Binding on mGlu2 Transfected CHO Cell Membranes. Transfection and Cell Culture
cDNA encoding the rat mGlu2 receptor protein in pBluescript II was subcloned into the eukaryotic expression vector pcDNA I-amp from Invitrogen Ltd (Paisley, UK). This vector construct (pcD1mGR2) was co-transfected with a psvNeo plasmid encoding the gene for neomycin resistance, into CHO cells by a modified calcium phosphate method described by Chen & Okayama (1988). The cells were maintained in Dulbecco's Modified Eagle medium with reduced L-glutamine (2 mM final concentration) and 10% dialysed foetal calf serum from Gibco-Invitrogen (Carlsbad, Calif., USA). Selection was made in the presence of G-418 (1000 ug/ml final) and […]. Clones were identified by reverse transcription of 5 μg total RNA, followed by PCR mGlu2 receptor specific primers 5′-[…]-3′ and 5′-[…]-3′in 60 mM Tris HCl (pH 10), 15 mM (NH4)2SO4, 2 mM MgCl2, 25 units/ml Taq Polymerase with 30 cycles annealing at 60° C. for 1 min., extention at 72° C. for 30 s, and 1 min. 95° C. denaturation.
Cells, cultured as above, were harvested and washed three times with cold PBS and frozen at −80° C. The pellet was resuspended in cold 20 mM HEPES-NaOH buffer containing 10 mM EDTA (pH 7.4), and homogenised with a polytron (Kinematica, AG, Littau, Switzerland) for 10 s at 10 000 rpm. After centrifugation for 30 min. at 4° C., the pellet was washed once with the same buffer, and once with cold 20 mM HEPES-NaOH buffer containing 0.1 mM EDTA, (pH 7.4). Protein content was measured using the micro BCA method from Pierce-Perbio (Rockford, Ill., USA) using bovine serum albumin as standard.
After thawing, the membranes were resuspended in cold 50 mM Tris-HCl buffer containing 2 mM MgCl2 (pH 7) (binding buffer). The final concentration of the membranes in the assays was 25 μg protein/ml. Inhibition experiments were performed with membranes incubated with 10 nM [^3H]-LY354740 at room temperature, for 1 hour, in presence of various concentrations of the compound to be tested. Following the incubations, membranes were filtered onto Whatmann GF/B glass fiber filters and washed 5 times with cold binding buffer. Non specific binding was measured in the presence of 10 μM DCG IV. After transfer of the filters into plastic vials containing 10 ml of Ultima-gold scintillation fluid from Perkin-Elmer(Boston, Mass., USA), the radioactivity was measured by liquid scintillation in a Tri-Carb 2500 TR counter (Packard, Zürich, Switzerland).
The inhibition curves were fitted with a four parameter logistic equation giving IC50 values, and Hill coefficients.

T1 sequence (P31421 19-872): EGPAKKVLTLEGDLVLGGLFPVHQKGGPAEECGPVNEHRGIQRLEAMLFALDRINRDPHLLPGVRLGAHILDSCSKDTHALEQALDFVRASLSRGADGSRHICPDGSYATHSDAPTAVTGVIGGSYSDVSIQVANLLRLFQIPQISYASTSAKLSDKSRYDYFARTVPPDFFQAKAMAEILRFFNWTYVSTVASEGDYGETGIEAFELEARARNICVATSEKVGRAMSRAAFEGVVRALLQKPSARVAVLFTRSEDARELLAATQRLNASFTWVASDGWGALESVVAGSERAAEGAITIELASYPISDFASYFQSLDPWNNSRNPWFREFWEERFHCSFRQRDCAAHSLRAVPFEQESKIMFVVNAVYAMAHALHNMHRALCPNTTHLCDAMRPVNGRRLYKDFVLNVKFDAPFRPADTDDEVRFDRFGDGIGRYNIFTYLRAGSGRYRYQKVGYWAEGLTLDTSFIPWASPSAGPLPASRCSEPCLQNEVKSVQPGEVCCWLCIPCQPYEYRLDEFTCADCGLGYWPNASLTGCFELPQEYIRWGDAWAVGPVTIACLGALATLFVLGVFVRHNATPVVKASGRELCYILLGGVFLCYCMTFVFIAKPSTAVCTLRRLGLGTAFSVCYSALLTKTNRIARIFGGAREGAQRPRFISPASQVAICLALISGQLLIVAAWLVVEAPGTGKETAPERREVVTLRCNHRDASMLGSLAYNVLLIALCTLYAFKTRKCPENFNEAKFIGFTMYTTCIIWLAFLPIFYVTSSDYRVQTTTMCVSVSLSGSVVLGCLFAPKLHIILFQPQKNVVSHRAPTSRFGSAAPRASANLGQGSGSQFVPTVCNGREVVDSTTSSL

On to `NS(=O)(=O)c1cc(NC(=O)c2cnn3c(C(F)(F)F)cc(-c4ccc(C(F)(F)F)cc4)nc23)c(Cl)s1` [Example 2, 7-Trifluoromethyl-5-(4-trifluoromethyl-phenyl)-pyrazolo[1,5-a]pyrimidine-3-carboxylic acid (2-chloro-5-sulfamoyl-thiophen-3-yl)-amide], for which the melting point (commonly the temperature of the solid-liquid transition) amounted to 275 °C. For the same compound, at rat mGlu2 receptor, the inhibition constant (Ki) (in general, a dissociation constant, usually derived from enzyme kinetics or from competition with a known ligand) was found to be 6.9 nM.

In turn, `NS(=O)(=O)c1nnc(NC(=O)c2cnn3c(C(F)F)cc(-c4ccc(C(F)(F)F)cc4)nc23)s1` [Example 3, 7-Difluoromethyl-5-(4-trifluoromethyl-phenyl)-pyrazolo[1,5-a]pyrimidine-3-carboxylic acid (5-sulfamoyl-[1,3,4]thiadiazol-2-yl)-amide] gave a melting point of 284 °C. The compound further showed a Ki on rat mGlu2 receptor of 142 nM.

In turn, `Cc1nc(NC(=O)c2cnn3c(C(F)(F)F)cc(-c4ccc(C(F)(F)F)cc4)nc23)sc1S(N)(=O)=O` [Example 8, 7-Trifluoromethyl-5-(4-trifluoromethyl-phenyl)-pyrazolo[1,5-a]pyrimidine-3-carboxylic acid (4-methyl-5-sulfamoyl-thiazol-2-yl)-amide] returned a melting point of 303 °C. For the same compound, the Ki on rat mGlu2 receptor was 2.5 nM.

`O=C(Nc1cc(S(=O)(=O)N(CCO)CCO)sc1Cl)c1cnn2c(C(F)(F)F)cc(-c3ccc(C(F)(F)F)cc3)nc12` [Example 35, 7-Trifluoromethyl-5-(4-trifluoromethyl-phenyl)-pyrazolo[1,5-a]pyrimidine-3-carboxylic acid {5-[bis-(2-hydroxy-ethyl)-sulfamoyl]-2-chloro-thiophen-3-yl}-amide]: the melting point was determined as 217 °C. On rat mGlu2 receptor, this compound came in with a Ki of 27 nM.

The compound `Cc1nc(NC(=O)c2cnn3c(C(F)F)cc(-c4ccc(C(F)(F)F)cc4)nc23)sc1S(=O)(=O)N1CCN(C)CC1` [Example 68, 7-Difluoromethyl-5-(4-trifluoromethyl-phenyl)-pyrazolo[1,5-a]pyrimidine-3-carboxylic acid [4-methyl-5-(4-methyl-piperazine-1-sulfonyl)-thiazol-2-yl]-amide] gave a melting point of 269 °C.

With `Cc1nc(NC(=O)c2cnn3c(C(F)(F)F)cc(-c4ccc(C(F)(F)F)cc4)nc23)sc1S(=O)(=O)N1CCN(C)CC1` [Example 69, 7-Trifluoromethyl-5-(4-trifluoromethyl-phenyl)-pyrazolo[1,5-a]pyrimidine-3-carboxylic acid [4-methyl-5-(4-methyl-piperazine-1-sulfonyl)-thiazol-2-yl]-amide], the melting point came out at 273 °C.

As for `Cc1nc(NC(=O)c2cnn3c(C(F)F)cc(-c4ccc(C(F)(F)F)cc4)nc23)sc1S(=O)(=O)N(C)CCO` [Example 70, 7-Difluoromethyl-5-(4-trifluoromethyl-phenyl)-pyrazolo[1,5-a]pyrimidine-3-carboxylic acid {5-[(2-hydroxy-ethyl)-methyl-sulfamoyl]-4-methyl-thiazol-2-yl}-amide], the melting point was determined as 216 °C.

For the compound `Cc1nc(NC(=O)c2cnn3c(C(F)(F)F)cc(-c4ccc(C(F)(F)F)cc4)nc23)sc1S(=O)(=O)N(C)CCO` [Example 71, 7-Trifluoromethyl-5-(4-trifluoromethyl-phenyl)-pyrazolo[1,5-a]pyrimidine-3-carboxylic acid {5-[(2-hydroxy-ethyl)-methyl-sulfamoyl]-4-methyl-thiazol-2-yl}-amide], the melting point was determined as 266 °C.

Consider `CN(CCO)S(=O)(=O)c1cc(NC(=O)c2cnn3c(C(F)F)cc(-c4ccc(C(F)(F)F)cc4)nc23)c(Cl)s1` [Example 72, 7-Difluoromethyl-5-(4-trifluoromethyl-phenyl)-pyrazolo[1,5-a]pyrimidine-3-carboxylic acid {2-chloro-5-[(2-hydroxy-ethyl)-methyl-sulfamoyl]-thiophen-3-yl}-amide], for which the melting point turned out to be 231 °C.

`CN1CCN(S(=O)(=O)c2cc(NC(=O)c3cnn4c(C(F)F)cc(-c5ccc(C(F)(F)F)cc5)nc34)c(Cl)s2)CC1` [Example 73, 7-Difluoromethyl-5-(4-trifluoromethyl-phenyl)-pyrazolo[1,5-a]pyrimidine-3-carboxylic acid [2-chloro-5-(4-methyl-piperazine-1-sulfonyl)-thiophen-3-yl]-amide] came in with a melting point of 293 °C.

The compound `CN1CCN(S(=O)(=O)c2cc(NC(=O)c3cnn4c(C(F)(F)F)cc(-c5ccc(C(F)(F)F)cc5)nc34)c(Cl)s2)CC1` [Example 74, 7-Trifluoromethyl-5-(4-trifluoromethyl-phenyl)-pyrazolo[1,5-a]pyrimidine-3-carboxylic acid [2-chloro-5-(4-methyl-piperazine-1-sulfonyl)-thiophen-3-yl]-amide] gave a melting point of 301 °C.

Compound `CN(CCO)S(=O)(=O)c1cc(NC(=O)c2cnn3c(C(F)(F)F)cc(-c4ccc(C(F)(F)F)cc4)nc23)c(Cl)s1` [Example 77, 7-Trifluoromethyl-5-(4-trifluoromethyl-phenyl)-pyrazolo[1,5-a]pyrimidine-3-carboxylic acid {2-chloro-5-[(2-hydroxy-ethyl)-methyl-sulfamoyl]-thiophen-3-yl}-amide] had a melting point of 221 °C.

For `NCCNS(=O)(=O)c1cc(NC(=O)c2cnn3c(C(F)(F)F)cc(-c4ccc(C(F)(F)F)cc4)nc23)c(Cl)s1` [Example 78, 7-Trifluoromethyl-5-(4-trifluoromethyl-phenyl)-pyrazolo[1,5-a]pyrimidine-3-carboxylic acid [5-(2-amino-ethylsulfamoyl)-2-chloro-thiophen-3-yl]-amide], the melting point came out at 195 °C.
